Source: patent US20210386738A1, “COMBINATION OF PRMT5 INHIBITORS AND BCL-2 INHIBITORS” (GLAXOSMITHKLINE INTELLECTUAL PROPERTY DEVELOPMENT LIMITED, priority 2018, published 2021)

Tests used:
[1] = test system: lymphoma cell line DB; assay: Standard 6-day growth-death assay, DB; format: cell-based; conditions: single agent or fixed 1:1 combination
Experimental: The majority cell lines were obtained from GSK BioCat group, American Type Culture Collection (ATCC), or the Deutsche Sammlung von Mikroorganismen and Zellbulturen (DSMZ). All cell lines were maintained in growth medium in T75 cm^2 flasks, incubated at 37° C. with 5% CO2 and split every 3 to 4 days. Growth media conditions and cell line information are detailed in Table 1. Cells were counted using the Vi-Cell Analyzer (Beckman Coulter ViCell) to obtain viable cell counts.
Optimal cell seeding density was determined for all cell lines by monitoring proliferation over a range of seeding densities in 384-well format and identifying the seeding density at which cells grew logarithmically throughout six days. 50 uL of cells per well were plated in 384-well plates at the optimal seeding density in preferred supplemented culture media. Three plates were prepared per cell line and incubated overnight at 37° C. in 5% CO2.
In these studies, lymphoma cell lines were treated with PRMT5 inhibitor, compound A and BCL-2 targeted inhibitor, ABT-199 single agent or in combination using a fixed 1:1 ratio of each inhibitor over a 20-point titration. For compound A single and fixed 1:1 ratio combination with ABT-199 cell proliferation assay, cells were treated in duplicate with a 20-point, two-fold dilution series of Compound A, ABT-199 (≥14 μM top dose) single or combo treatment, and ≤0.15% DMSO final concentration. Plates were incubated for six days at the conditions described above. Cell growth was measured using CellTiter-Glo (Promega) and luminescence signal was detected with a BioTek Synergy Neo microplate reader. A plate of untreated cells was read at the time of compound/biologic addition to determine the T0 value representing the starting number of cells. Data were fit with a four-parameter equation to generate a concentration response curve using Assay Client software.
Results were background corrected by subtraction of values from wells containing no cells, expressed as a percentage of the T0 value (value at time=0), and plotted against compound concentration. The T0 value was normalized to 100% and represents the number of cells present at the time of compound addition. The cellular response was determined for each compound using a 4- or 6-parameter curve fit of cell viability against concentration using Assay Client software. Growth IC50 (gIC50) values correspond to the concentration intersecting the mid-point of the growth window (between DMSO and T0 values). Growth IC100 (gIC100) values correspond to the concentration at which 100% growth inhibition is achieved, based on the growth window. The Ymin−T0 value, a measure of net population cell growth or death, is calculated by subtracting the T0 value (100%) from the Ymin value (%) that is determined from the fit of the concentration response curve. Death EC50 (dEC50) values correspond to the concentration at which 50% net cell death is observed.
Individual curves were quality checked for three criteria: outlier data points, cell growth (population doubling ≥1.5), and proper curve fitting. […] Individual curves were QC checked for outlier data points, cell growth (population doubling ≥1.5), and proper curve fitting. Obvious outlier data points were omitted only as needed to ensure proper curve fit.
For fixed ratio screening, combination activity was assessed by the fold change in gIC50 compared to the 2 single agent curves by dividing the compound ratio as necessary. Combinations showing >3-fold and >5-fold change from single agent are described as below: • Fold changes ≥5 are considered to represent strong synergy. • Fold changes between 3.0 and 4.9 are considered to represent weak synergy. • Fold changes <3 are considered to represent no synergy.

[2] = test system: lymphoma cell line DB; assay: Serial dilutions: fixed ABT-199 concentration with Compound A titration, six-day cell proliferation; format: cell-based
Experimental: Serial dilutions were performed for the combination to ascertain the change in gIC50, gIC100 and dEC50 when the inhibitors are used together in a PRMT5 inhibitor cell proliferation. A first compound plate was prepared where PRMT5 inhibitor, Compound A, was prepared with a 20-point, two-fold dilution series of compound A from column 1 to 20. A second compound plate was prepared using the BCL-2 inhibitor ABT-199. ABT-199 was titrated in a 16-point 2-fold dilution series from row A to Q. A third plate was then created by added equal volume of 12 ul (ABT-199) from each well in the second plate into the corresponding well in the first plate. The third plate comprised rows from A to Q, each row comprising a fixed concentration of ABT-199. Columns 1-20 comprised varying concentrations of compound A from the 20-point dilution. Plates were incubated for six days at the conditions described above. Lymphoma cell line DB was treated with the solution in each of the wells. Cell growth was measured using CellTiter-Glo (Promega) and luminescence signal was detected with a BioTek Synergy Neo microplate reader. A plate of untreated cells was read at the time of compound/biologic addition to determine the T0 value representing the starting number of cells. Data were fit with a four-parameter equation to generate a concentration response curve for each row using Assay Client software. A comparison was made across each row in the third plate to determine, when keeping a fixed concentration of ABT-199, what concentration of compound A is needed to reach the gIC50, gIC100 or dEC50 respectively and the fold change compared to treating the same cell with compound A alone.
Tables 4a-c show the results of the above serial dilution experiments wherein ‘fold change’ is the difference between the amount of compound A needed to achieve gIC50, gIC100 or dEC50 respectively, compared to the amount of compound A needed to achieve gIC50, gIC100 or dEC50 respectively when compound A is given as a single agent.

[3] = fixed ABT-199 with compound A titration, vs compound A alone

EC50 ([2]; 144 h, single agent, six days, read-out: dEC50): > 7.33 µM
IC50 ([2]; 144 h, single agent, six days, read-out: gIC50): 6.41 µM
Structure (SMILES): CC1(C)CCC(CN2CCN(c3ccc(C(=O)NS(=O)(=O)c4ccc(NCC5CCOCC5)c([N+](=O)[O-])c4)c(Oc4cnc5[nH]ccc5c4)c3)CC2)=C(c2ccc(Cl)cc2)C1 [ABT-199, venetoclax, reference compound]
EC50 ([1]; 144 h, average of n=2, read-out: dEC50): > 14.7 µM
IC50 ([1]; 144 h, average of n=2, read-out: gIC50): 2.48 µM
Ymin-T0 ([1]; average of n=2): 449%
gIC100 ([1]; average of n=2): > 14.7 µM
concentration of ABT-199 at which ≥3 fold change was achieved in dEC50 ([2]; fixed ABT-199 with compound A titration): 1833 nM
concentration of ABT-199 at which ≥3 fold change was achieved in gIC50 [2, 3]: 115 nM
concentration of ABT-199 at which ≥3 fold change was achieved in gIC100 [2, 3]: 458 nM
gIC100 ([2]; single agent, six days): 7.331 µM
